One experiment addresses Histone deacetylase 1 (Homo sapiens, UniProt Q13547). Nature of the experiment: Inhibition of recombinant HDAC1 (unknown origin) using fluorogenic substrate Boc-Lys (acetyl)-AMC after 20 mins by homogeneous fluorescence release assay.
For another experiment, the target named is Histone deacetylase 2 (Homo sapiens, UniProt Q92769). Nature of the experiment: Inhibition of recombinant HDAC2 (unknown origin) using fluorogenic substrate Boc-Lys (acetyl)-AMC after 20 mins by homogeneous fluorescence release assay.
Histone deacetylase 2, sequence (Q92769 whole entry): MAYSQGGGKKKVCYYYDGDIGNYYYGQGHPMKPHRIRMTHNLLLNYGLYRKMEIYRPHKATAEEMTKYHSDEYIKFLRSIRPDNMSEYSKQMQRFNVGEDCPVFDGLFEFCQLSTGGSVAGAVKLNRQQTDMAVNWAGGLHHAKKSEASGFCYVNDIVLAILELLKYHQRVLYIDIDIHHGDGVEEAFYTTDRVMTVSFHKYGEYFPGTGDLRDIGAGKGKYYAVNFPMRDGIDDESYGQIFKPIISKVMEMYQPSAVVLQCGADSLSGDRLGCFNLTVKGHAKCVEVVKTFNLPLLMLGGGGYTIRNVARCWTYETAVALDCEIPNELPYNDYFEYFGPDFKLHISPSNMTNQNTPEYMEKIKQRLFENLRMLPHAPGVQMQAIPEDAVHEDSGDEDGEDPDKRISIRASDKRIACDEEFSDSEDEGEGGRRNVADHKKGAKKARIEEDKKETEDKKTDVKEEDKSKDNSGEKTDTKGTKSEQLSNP
In a further experiment the target is T1, Histone deacetylase 8 (Homo sapiens, UniProt Q9BY41).
T1 sequence (Q9BY41 whole entry): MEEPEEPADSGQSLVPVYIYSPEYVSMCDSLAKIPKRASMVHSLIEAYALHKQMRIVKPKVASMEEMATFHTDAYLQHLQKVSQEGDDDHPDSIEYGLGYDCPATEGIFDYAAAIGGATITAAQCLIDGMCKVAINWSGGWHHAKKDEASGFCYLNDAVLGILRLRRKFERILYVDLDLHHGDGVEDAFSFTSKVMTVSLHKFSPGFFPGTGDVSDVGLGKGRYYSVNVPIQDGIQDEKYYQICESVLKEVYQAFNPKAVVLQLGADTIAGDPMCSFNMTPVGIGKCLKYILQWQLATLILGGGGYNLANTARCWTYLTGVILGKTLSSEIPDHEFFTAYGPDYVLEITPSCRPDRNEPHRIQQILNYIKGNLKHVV
As to the kind of experiment: Inhibition of recombinant HDAC8 (unknown origin) using fluorogenic substrate Boc-Lys (acetyl)-AMC after 20 mins by homogeneous fluorescence release assay.

A short description of experiment [1]: cells. It is filed as functional, cell-based. Particulars: Homo sapiens, HCT-116, 72 h.
Description: Antiproliferative activity against human HCT116 cells assessed as inhibition of cell growth after 72 hrs by MTT-based assay
For another experiment, the system named is A549. Nature of the experiment: Antiproliferative activity against human A549 cells assessed as inhibition of cell growth after 72 hrs by MTT-based assay. It is filed as functional. The following applies: A549, 72 h. (In general: Formazan colour is commonly taken as a measure of viable cells.)
The subject of another experiment is NCI-H661. As to the kind of experiment: Antiproliferative activity against human NCI-H661 cells assessed as inhibition of cell growth after 72 hrs by MTT-based assay. It is filed as functional. The following applies: NCI-H661, 72 h.
A short description of experiment [2]: cells. It is filed as functional, cell-based. Particulars: Homo sapiens, U-937, 72 h.
Description: Antiproliferative activity against human U937 cells assessed as inhibition of cell growth after 72 hrs by MTT-based assay
The test system of the next experiment is MDA-MB-231. As to the kind of experiment: cells. It counts as functional, cell-based. Particulars: Homo sapiens, MDA-MB-231, 72 h.

pIC50: −log10 of the molar value.

What is called pIC50 is the IC50 on a negative log10 scale, so that one unit is a factor of ten.

Histone deacetylase 1, sequence (Q13547 whole entry): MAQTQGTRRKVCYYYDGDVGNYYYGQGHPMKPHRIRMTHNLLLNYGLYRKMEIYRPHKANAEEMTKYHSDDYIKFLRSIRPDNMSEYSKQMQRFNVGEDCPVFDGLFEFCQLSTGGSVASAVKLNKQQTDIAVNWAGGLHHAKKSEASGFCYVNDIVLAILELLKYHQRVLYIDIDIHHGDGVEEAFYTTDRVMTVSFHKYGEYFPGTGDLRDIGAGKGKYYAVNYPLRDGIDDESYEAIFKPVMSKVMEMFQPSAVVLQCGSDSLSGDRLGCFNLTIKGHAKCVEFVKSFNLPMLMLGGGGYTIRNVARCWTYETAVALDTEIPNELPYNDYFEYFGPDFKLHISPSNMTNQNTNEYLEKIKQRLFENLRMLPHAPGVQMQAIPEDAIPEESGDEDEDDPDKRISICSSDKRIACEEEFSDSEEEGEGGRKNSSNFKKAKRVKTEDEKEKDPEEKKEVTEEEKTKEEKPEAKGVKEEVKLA
Description for MDA-MB-231: Antiproliferative activity against human MDA-MB-231 cells assessed as inhibition of cell growth after 72 hrs by MTT-based assay

As to `Nc1ccccc1NC(=O)c1ccc(CNCc2nc(-c3ccccc3)no2)cc1`, the pIC50 is 6.55 on Histone deacetylase 1; 6.28 at Histone deacetylase 2; less than 5.00 on Histone deacetylase 8; 5.06 in “cells [1]”; 4.97 with A549; 4.93 with NCI-H661. The negative-log IC50 (pIC50) was 5.79 in “cells [2]” and 5.11 in the experiment on MDA-MB-231.

`Cc1ccc(-c2noc(CNCc3ccc(C(=O)Nc4ccccc4N)cc3)n2)cc1`: the pIC50 is 6.68 at Histone deacetylase 1; 6.25 on Histone deacetylase 2; less than 5.00 at Histone deacetylase 8; 5.18 in the experiment “cells [1]”; 5.01 with A549; 5.13 in the experiment on NCI-H661. The pIC50 in “cells [2]” is 6.01; with MDA-MB-231, 5.24.

`COc1ccc(-c2noc(CNCc3ccc(C(=O)Nc4ccccc4N)cc3)n2)cc1`: the pIC50 on Histone deacetylase 1 was 6.74; on Histone deacetylase 2 it was 6.54; on Histone deacetylase 8, less than 5.00; in “cells [1]”, 5.36; in the experiment on A549 it was 5.10; in the experiment with NCI-H661, 5.24. Further, the pIC50 in “cells [2]” was 5.96; in the experiment on MDA-MB-231 it was 5.26.

Regarding `Nc1ccccc1NC(=O)c1ccc(CNCc2nc(-c3ccc(C(F)(F)F)cc3)no2)cc1`, the pIC50 on Histone deacetylase 1 was 5.56; at Histone deacetylase 2 it was 5.23; on Histone deacetylase 8 it was less than 5.00; in “cells [1]”, 4.71; in the experiment on A549, 4.00; in the experiment on NCI-H661, 4.63. For the same compound, the pIC50 in the experiment “cells [2]” is 5.59; in the experiment with MDA-MB-231, 5.16.

Turning to `Nc1ccccc1NC(=O)c1ccc(CNCc2nc(-c3ccc(Cl)cc3)no2)cc1`, the pIC50 on Histone deacetylase 1 is 7.05; on Histone deacetylase 2, 6.37; at Histone deacetylase 8, less than 5.00; in the experiment “cells [1]”, 5.17; with A549 it was 4.87; in the experiment with NCI-H661, 5.10. In addition, the pIC50 in the experiment “cells [2]” is 6.37; in the experiment with MDA-MB-231, 5.29.

On to `Nc1ccccc1NC(=O)c1ccc(CNCc2nc(-c3ccc([N+](=O)[O-])cc3)no2)cc1`, for which the pIC50 on Histone deacetylase 1 is 7.22; on Histone deacetylase 2, 6.82; on Histone deacetylase 8 it was less than 5.00; in “cells [1]” it was 5.63; in the experiment with A549 it was 5.19; in the experiment with NCI-H661, 5.33. The figures for the pIC50 in “cells [2]” and in the experiment with MDA-MB-231 were 6.28 and 5.50, respectively.

`Nc1ccccc1NC(=O)c1ccc(CNCc2nc(-c3ccc(F)cc3)no2)cc1`: the pIC50 at Histone deacetylase 1 was 6.96; on Histone deacetylase 2, 6.55; on Histone deacetylase 8, less than 5.00; in the experiment “cells [1]”, 5.45; with A549, 4.97; in the experiment on NCI-H661, 5.36. The pIC50 in “cells [2]” is 5.90; in the experiment on MDA-MB-231, 5.53.

On to `Nc1ccccc1NC(=O)c1ccc(CNCc2nc(-c3cccs3)no2)cc1`, for which the negative-log IC50 (pIC50) is 5.41 at Histone deacetylase 1; 5.36 on Histone deacetylase 2; less than 5.00 at Histone deacetylase 8; 4.57 in “cells [1]”; less than 4.00 in the experiment on A549; 4.45 in the experiment with NCI-H661. The pIC50 was 5.22 in the experiment “cells [2]” and 4.99 in the experiment on MDA-MB-231.

As to `Nc1ccccc1NC(=O)c1ccc(CNCc2nc(-c3cccnc3)no2)cc1`, the pIC50 at Histone deacetylase 1 is 5.28; at Histone deacetylase 2 it was 5.08; at Histone deacetylase 8, less than 5.00; in the experiment “cells [1]” it was 4.36; in the experiment with A549, less than 4.00; in the experiment on NCI-H661 it was 4.00. Moreover, the results for the pIC50 in the experiment “cells [2]” and with MDA-MB-231 were 4.96 and 4.67, respectively.

As to `Nc1ccccc1NC(=O)c1ccc(CNCc2nc(-c3ccccc3Cl)no2)cc1`, the pIC50 at Histone deacetylase 1 is 7.15; at Histone deacetylase 2, 6.49; at Histone deacetylase 8, less than 5.00; in the experiment “cells [1]”, 5.91; with A549, 5.10; in the experiment with NCI-H661 it was 5.48. Besides, the pIC50 in “cells [2]” was 6.42; in the experiment with MDA-MB-231 it was 5.45.

For the compound `O=C(NO)c1ccc(CNCc2nc(-c3ccccc3)no2)cc1`, the pIC50 at Histone deacetylase 1 is 5.24; on Histone deacetylase 2, less than 5.00; on Histone deacetylase 8, 6.70; in the experiment “cells [1]”, 4.53; in the experiment on A549 it was less than 4.00; in the experiment on NCI-H661, less than 4.00. Moreover, the pIC50 in “cells [2]” is 5.14; with MDA-MB-231 it was 4.83.

On to `Cc1ccc(-c2noc(CNCc3ccc(C(=O)NO)cc3)n2)cc1`, for which the pIC50 was 5.16 at Histone deacetylase 1; less than 5.00 at Histone deacetylase 2; 5.90 at Histone deacetylase 8; 4.56 in “cells [1]”; less than 4.00 in the experiment on A549; less than 4.00 in the experiment with NCI-H661. The pIC50 in “cells [2]” is 5.11; in the experiment with MDA-MB-231, 4.81.

`COc1ccc(-c2noc(CNCc3ccc(C(=O)NO)cc3)n2)cc1`: the pIC50 is 5.08 at Histone deacetylase 1; less than 5.00 at Histone deacetylase 2; 6.07 at Histone deacetylase 8; 4.73 in the experiment “cells [1]”; less than 4.00 in the experiment on A549; less than 4.00 in the experiment on NCI-H661. Further, the pIC50 in “cells [2]” was 5.46; in the experiment with MDA-MB-231, 5.05.

For the compound `O=C(NO)c1ccc(CNCc2nc(-c3ccc(C(F)(F)F)cc3)no2)cc1`, the negative logarithm of the IC50 (pIC50) is 5.02 on Histone deacetylase 1; less than 5.00 at Histone deacetylase 2; 5.87 on Histone deacetylase 8; 4.37 in “cells [1]”; less than 4.00 with A549; less than 4.00 with NCI-H661. Besides, the negative logarithm of the IC50 (pIC50) in the experiment “cells [2]” was 5.09; in the experiment on MDA-MB-231, 4.91.

On to `O=C(NO)c1ccc(CNCc2nc(-c3ccc(Cl)cc3)no2)cc1`, for which the pIC50 is 5.41 at Histone deacetylase 1; 5.07 on Histone deacetylase 2; 6.46 on Histone deacetylase 8; 4.52 in the experiment “cells [1]”; less than 4.00 in the experiment with A549; less than 4.00 with NCI-H661. The pIC50 in the experiment “cells [2]” is 5.28; with MDA-MB-231 it was 4.96.

For `O=C(NO)c1ccc(CNCc2nc(-c3ccc([N+](=O)[O-])cc3)no2)cc1`, the pIC50 on Histone deacetylase 1 was 5.57; on Histone deacetylase 2 it was 5.03; on Histone deacetylase 8, 6.42; in “cells [1]” it was 4.66; with A549, less than 4.00; in the experiment with NCI-H661, less than 4.00. Also, the values for the pIC50 in the experiment “cells [2]” and in the experiment with MDA-MB-231 were 5.19 and 5.02, respectively.

Take `O=C(NO)c1ccc(CNCc2nc(-c3ccc(F)cc3)no2)cc1`: the pIC50 was 5.45 on Histone deacetylase 1; 5.11 on Histone deacetylase 2; 6.64 on Histone deacetylase 8; 4.75 in the experiment “cells [1]”; less than 4.00 with A549; less than 4.00 in the experiment on NCI-H661. In addition, the figures for the negative logarithm of the IC50 (pIC50) in “cells [2]” and in the experiment with MDA-MB-231 were 5.53 and 5.04, respectively.

For `O=C(NO)c1ccc(CNCc2nc(-c3cccs3)no2)cc1`, the pIC50 on Histone deacetylase 1 is less than 5.00; on Histone deacetylase 2, less than 5.00; on Histone deacetylase 8, 5.08; in the experiment “cells [1]”, less than 4.00; in the experiment on A549, less than 4.00; with NCI-H661, less than 4.00. Moreover, the pIC50 in the experiment “cells [2]” was 4.97; with MDA-MB-231 it was 4.62.

As for `Nc1ccccc1NC(=O)c1ccc(CNC(=O)OCc2cccnc2)cc1` [ENTINOSTAT], the pIC50 in the experiment “cells [1]” was 6.11; in the experiment on A549, 5.27; in the experiment on NCI-H661, 5.66; in the experiment “cells [2]”, 6.26; in the experiment on MDA-MB-231 it was 5.33.

For `O=C(CCCCCCC(=O)Nc1ccccc1)NO` [VORINOSTAT], the pIC50 in the experiment on NCI-H661 was 6.89.

(Values after ChEMBL document CHEMBL3421568, “Discovery and preliminary evaluation of 2-aminobenzamide and hydroxamate derivatives containing 1,2,4-oxadiazole moiety as potent histone deacetylase inhibitors” (Eur J Med Chem, 2015).)
